Assay [1] has as its target T1, human 11β-HSD1 (Homo sapiens, UniProt P28845).
T1 construct: The obtained PCR products of about 0.9 kbp, 1.2 kbp, and 0.9 kbp were subcloned into an expression vector pcDNA3.1+/Zeo; expressed in transfected cells
The assay can be described thus: Enzyme inhibitory activity, human 11β-HSD1 (lysate of stably expressing HEK293 cells, cortisol by competitive ELISA). The assay is classed as biochemical. The following applies: human 11β-HSD1, cell lysate, 37° C. for 1 hour, read-out: h HSD1 in vitro assay (IC50 uM). The protocol: (§1) 1. Human 11β-HSD1-, Human 11β-HSD2- and Mouse 11β-HSD1-Gene Clonings and Establishment of Stably Expressing Cells
(§2) Human 11β-HSD1-, human 11β-HSD2-, and mouse 11β-HSD1-gene clonings were conducted using as a template a reverse transcription product of human-liver RNA, human-kidney RNA (CELL APPLICATIONS), and mouse-kidney RNA respectively, by means of PCR cloning with reference to nucleotide sequences of Genbank Accession Nos. NM_005525, NM_000196, and NM_008288. The obtained PCR products of about 0.9 kbp, 1.2 kbp, and 0.9 kbp were subcloned into an expression vector pcDNA3.1+/Zeo (Invitrogen).
(§3) Human 11β-HSD1- and human 11β-HSD2-expressing vectors were transfected into human kidney-derived cell line, HEK293 cells, using a transfection reagent, jet PEI (Funakoshi). Mouse 11β-HSD1 was transfected to Chinese hamster ovary-derived cell line, CHO-K1 cells. Selection was conducted with 200-400 μg/mL of zeocine (Invitrogen) to provide stably expressing-cell clones. The stably expressing cells were suspended in buffer solution A (20 mmol/L Tris-HCl, pH 7.4, 250 mmol/L sucrose, 1 mmol/L EGTA, 1 mmol/L EDTA, 1 mmol/L MgCl2), sonicated, and then stored at −80° C.
(§4) 2. Assay of Enzyme Inhibitory Activity
(§5) An enzymatic reaction was conducted using a polystyrene 96-well plate. Each well was added with 1 μL of a test agent dissolved in DMSO and then diluted (0.003 to 3 mmol/L), and further added with 10 μL of cell lysate diluted to a concentration of 0.1 mg/mL to 0.4 mg/mL. Next, 90 μL of buffer solution A containing substrate (100 nmol/L cortisone or cortisol) and coenzyme (400 μmol/L NADPH or NAD+) was added and the mixture was incubated at 37° C. for 1 hour. The enzymatic reaction was stopped by treating at 95° C. for 3 minutes. Cortisol that was present in the reaction solution was determined by a competitive ELISA shown below.
(§6) Anti-rabbit IgG antibody (Chemi-con) diluted to 2 μg/mL with carbonate buffer solution (pH 9.6) was added in 100 μL each to a 96-well immuno plate (Nunc) and immobilized by an incubation at 4° C. overnight. 50 μL of enzymatic reaction solution was put onto the plates, and further, anti-cortisol antibody (Cosmo Bio) and HRP-labeled cortisol (Cosmo Bio), diluted with buffer solution B (25 mmol/L Tris-HCl pH 7.4, 137 mmol/L NaCl, 2.68 mmol/L KCl), were added in 50 μL respectively and incubated at 4° C. overnight. After washed three times with buffer solution B containing 0.05% Tween 20, the plates were allowed to develop color by adding 100 μL of color reagent, TMB (Moss). The color reaction was stopped by 25 μL of 1 mol/L sulfuric acid and the absorbance was determined at 450 nm with a microplate reader (Molecular Device, VersaMax).
(§7) The values of human 11β-HSD1, human 11β-HSD2, and mouse 11β-HSD1 activities were subtracted from 100, and the resultant values were regarded as the respective 11β-HSD inhibition rates of example compounds. […] The comparison of human 11β-HSD1 and human 11β-HSD2 inhibiting activities is shown in Table 1, and the comparison of human 11β-HSD1 and mouse 11β-HSD1 inhibiting activities is shown in Table 2.

In assay [2] the target is T2, mouse 11β-HSD1 (Mus musculus, UniProt P50172).
T2 construct: The obtained PCR products of about 0.9 kbp, 1.2 kbp, and 0.9 kbp were subcloned into an expression vector pcDNA3.1+/Zeo; expressed in transfected cells
The assay can be described thus: Enzyme inhibitory activity, mouse 11β-HSD1 (lysate of stably expressing CHO-K1 cells, cortisol by competitive ELISA). The assay is classed as biochemical. As to conditions: Table 2; mouse 11β-HSD1, cell lysate, 37° C. for 1 hour; read-out: m HSD1 in vitro assay (IC50 uM). As to the method: as §1, §2, §3, §4, §5, §6, §7

Where two headings read alike, the source gives them in different places.

T1 sequence (P28845 whole entry): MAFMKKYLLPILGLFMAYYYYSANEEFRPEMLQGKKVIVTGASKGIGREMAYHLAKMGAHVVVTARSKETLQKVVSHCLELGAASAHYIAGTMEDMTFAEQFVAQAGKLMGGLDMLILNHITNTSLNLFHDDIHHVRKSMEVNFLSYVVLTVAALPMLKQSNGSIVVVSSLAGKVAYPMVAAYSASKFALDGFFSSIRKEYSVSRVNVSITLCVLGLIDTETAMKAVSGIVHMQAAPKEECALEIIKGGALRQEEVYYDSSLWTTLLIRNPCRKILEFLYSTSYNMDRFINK
T2 sequence (P50172 whole entry): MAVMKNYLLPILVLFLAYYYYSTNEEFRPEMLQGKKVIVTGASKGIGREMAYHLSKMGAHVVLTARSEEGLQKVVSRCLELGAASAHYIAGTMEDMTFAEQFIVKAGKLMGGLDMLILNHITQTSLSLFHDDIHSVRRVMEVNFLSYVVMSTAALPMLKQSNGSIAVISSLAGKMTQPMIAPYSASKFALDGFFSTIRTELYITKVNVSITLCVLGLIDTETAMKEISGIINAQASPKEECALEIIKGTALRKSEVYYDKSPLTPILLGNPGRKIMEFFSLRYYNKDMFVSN

With `CC1(C)C(=O)N(C2C3CC4CC(C3)CC2C4)N1C(=O)c1ccc(N)cc1` (stereo not drawn) [Example 139, 1-[(4-aminophenyl)carbonyl]-4,4-dimethyl-2-(adamantan-2-yl)-1,2-diazetidin-3-one], the values for the IC50 in assay [1] (Table 1) and in assay [2] were 0.79 µM and 0.36 µM, respectively.
The matching figures for `CC1(C)C(=O)N([C@H]2C3CC4CC2C[C@](Cl)(C4)C3)N1c1ccc(F)c2ccccc12` [Example 255, trans-2-(5-chloroadamantan-2-yl)-1-(4-fluoronaphthalen-1-yl)-4,4-dimethyl-1,2-diazetidin-3-one]: 0.003 µM and 0.18 µM.
The like results for `CC1(C)C(=O)N(C2CCCCCCC2)N1C(=O)c1cccc(Cl)c1` [Example 150, 1-[(3-chlorophenyl)carbonyl]-2-cyclooctyl-4,4-dimethyl-1,2-diazetidin-3-one] were, in that order, 0.84 µM and 0.43 µM.
In the case of `COc1ccccc1N1N(C2C3CC4CC(C3)CC2C4)C(=O)C1(C)C` (stereo not drawn) [Example 205, 1-(2-methoxyphenyl)-4,4-dimethyl-2-(adamantan-2-yl)-1,2-diazetidin-3-one], the IC50 – broadly, the concentration that inhibits the measured activity by half – in assay [1] (Table 1) was 0.1 µM; in assay [2] it was 0.2 µM.
`Cc1ccccc1C(=O)N1N(C2CCCCCCC2)C(=O)C1(C)C` [Example 152, 2-cyclooctyl-4,4-dimethyl-1-[(2-methylphenyl)carbonyl]-1,2-diazetidin-3-one]: the half-maximal inhibitory concentration (IC50) in assay [1] (Table 1) worked out at 0.23 µM; in assay [2], 0.54 µM.
Turning to `CC1(C)C(=O)N([C@H]2C3CC4CC2C[C@](O)(C4)C3)N1c1ccccc1` [Example 226, trans-2-(5-hydroxyadamantan-2-yl)-4,4-dimethyl-1-phenyl-1,2-diazetidin-3-one], in assay [1] (Table 1), the IC50 was determined as 0.95 µM.
As for `CC1(C)C(=O)N([C@H]2C3CC4CC2C[C@](O)(C4)C3)N1c1cccc2ccccc12` [Example 236, trans-2-(5-hydroxyadamantan-2-yl)-4,4-dimethyl-1-(naphthalen-1-yl)-1,2-diazetidin-3-one], the IC50 was 0.095 µM in assay [1] (Table 1) and 0.31 µM in assay [2].
Consider `CC1(C)C(=O)N(C2C3CC4CC(C3)CC2C4)N1Cc1ccc(F)cc1` (stereo not drawn) [Example 15, 1-(4-fluorobenzyl)-4,4-dimethyl-2-(adamantan-2-yl)-1,2-diazetidin-3-one], for which the IC50 in assay [1] (Table 2) amounted to 0.36 µM; in assay [2], 0.084 µM.
In the case of `COc1cccc(CN2N(C3C4CC5CC(C4)CC3C5)C(=O)C2(C)C)c1` (stereo not drawn) [Example 54, 1-(3-methoxybenzyl)-4,4-dimethyl-2-(adamantan-2-yl)-1,2-diazetidin-3-one], the 50% inhibitory concentration (IC50) in assay [1] (Table 2) was determined as 0.3 µM; in assay [2] it was 0.036 µM.
On to `CC1(C)C(=O)N([C@H]2C3CC4CC2C[C@](O)(C4)C3)N1Cc1ccccc1Cl` [Example 65, trans-1-(2-chlorobenzyl)-2-(5-hydroxyadamantan-2-yl)-4,4-dimethyl-1,2-diazetidin-3-one], for which the IC50 came to 0.5 µM in assay [1] (Table 2) and 0.47 µM in assay [2].
As to `CC1(C)C(=O)N(C2C3CC4CC(C3)CC2C4)N1C(=O)c1ccc(F)cc1C(F)(F)F` (stereo not drawn) [Example 132, 1-[(4-fluoro-2-trifluoromethylphenyl)carbonyl]-4,4-dimethyl-2-(adamantan-2-yl)-1,2-diazetidin-3-one], in assay [1] (Table 1), the IC50 came to 0.66 µM.
As for `COCOc1ccc(N2N(C3C4CC5CC(C4)CC3C5)C(=O)C2(C)C)cc1` (stereo not drawn) [Example 214, 1-[4-(methoxymethoxy)phenyl]-4,4-dimethyl-2-(adamantan-2-yl)-1,2-diazetidin-3-one], the IC50 in assay [1] (Table 1) was determined as 0.041 µM.
In the case of `CC1(C)C(=O)N(C2C3CC4CC(C3)CC2C4)N1C(=O)c1cc(Cl)ccc1Br` (stereo not drawn) [Example 163, 1-[(2-bromo-5-chlorophenyl)carbonyl]-4,4-dimethyl-2-(adamantan-2-yl)-1,2-diazetidin-3-one], the IC50 in assay [1] (Table 1) came out at 0.72 µM.
Turning to `CC1(C)C(=O)N(C2C3CC4CC(C3)CC2C4)N1C(=O)c1ccccc1I` (stereo not drawn) [Example 121, 1-[(2-iodophenyl)carbonyl]-4,4-dimethyl-2-(adamantan-2-yl)-1,2-diazetidin-3-one], the IC50 in assay [1] (Table 1) came out at 0.07 µM.
As to `Cc1ccc(C)c(C(=O)N2N(C3CCCCC3)C(=O)C2(C)C)c1` [Example 149, 2-cyclohexyl-1-[(2,5-dimethylphenyl)carbonyl]-4,4-dimethyl-1,2-diazetidin-3-one], the IC50 in assay [1] (Table 1) came out at 0.9 µM.
For `CC1(C)C(=O)N([C@H]2C3CC4CC2C[C@@](O)(C4)C3)N1c1ccccc1O` [Example 244, cis-1-(2-hydroxyphenyl)-2-(5-hydroxyadamantan-2-yl)-4,4-dimethyl-1,2-diazetidin-3-one], in assay [1] (Table 1), the IC50 amounted to 0.81 µM.
For the molecule `CCc1ccccc1C(=O)N1N(C2C3CC4CC(C3)CC2C4)C(=O)C1(C)C` (stereo not drawn) [Example 126, 1-[(2-ethylphenyl)carbonyl]-4,4-dimethyl-2-(adamantan-2-yl)-1,2-diazetidin-3-one], the IC50 in assay [1] (Table 1) worked out at 0.11 µM.
With `COc1ccccc1N1N(C2CC3CCC2C3)C(=O)C1(C)C` (stereo not drawn) [Example 223, 2-(bicyclo[2.2.1]heptan-2-yl)-1-(2-methoxyphenyl)-4,4-dimethyl-1,2-diazetidin-3-one], the IC50 in assay [1] (Table 1) worked out at 0.68 µM.
Regarding `Cc1ccccc1N1N([C@H]2C3CC4CC2C[C@@](O)(C4)C3)C(=O)C1(C)C` [Example 242, cis-2-(5-hydroxyadamantan-2-yl)-4,4-dimethyl-1-(2-methylphenyl)-1,2-diazetidin-3-one], the IC50 in assay [1] (Table 1) was determined as 0.076 µM.
The same measure, in the same setting: next, `CC1(C)C(=O)N(C2C3CC4CC(C3)CC2C4)N1C(=O)c1cc(Cl)ccc1Cl` (stereo not drawn) [Example 122, 1-[(2,5-dichlorophenyl)carbonyl]-4,4-dimethyl-2-(adamantan-2-yl)-1,2-diazetidin-3-one]: 0.32 µM; `COc1ccc(N2N([C@H]3C4CC5CC3C[C@@](O)(C5)C4)C(=O)C2(C)C)cc1` [Example 240, cis-2-(5-hydroxyadamantan-2-yl)-1-(4-methoxyphenyl)-4,4-dimethyl-1,2-diazetidin-3-one]: 0.32 µM; `COc1ccc(N2N([C@H]3C4CC5CC3C[C@](O)(C5)C4)C(=O)C2(C)C)cc1` [Example 230, trans-2-(5-hydroxyadamantan-2-yl)-1-(4-methoxyphenyl)-4,4-dimethyl-1,2-diazetidin-3-one]: 0.54 µM.
As for `CC1(C)C(=O)N([C@H]2C3CC4CC2C[C@@](Cl)(C4)C3)N1c1cccc(Cl)c1Cl` [Example 256, cis-2-(5-chloroadamantan-2-yl)-1-(2,3-dichlorophenyl)-4,4-dimethyl-1,2-diazetidin-3-one], the IC50 in assay [1] (Table 1) worked out at 0.26 µM.
`CSc1ccccc1C(=O)N1N(C2CCCCCCC2)C(=O)C1(C)C` [Example 168, 2-cyclooctyl-4,4-dimethyl-1-{[2-(methylthio)phenyl]carbonyl}-1,2-diazetidin-3-one]: the IC50 in assay [1] (Table 1) is 0.11 µM.
`CSc1ccccc1C(=O)N1N(C2C3CC4CC(C3)CC2C4)C(=O)C1(C)C` (stereo not drawn) [Example 165, 4,4-dimethyl-1-{[2-(methylthio)phenyl]carbonyl}-2-(adamantan-2-yl)-1,2-diazetidin-3-one]: the IC50 in assay [1] (Table 1) stood at 0.096 µM.
Regarding `CC1(C)C(=O)N(C2CCCCCCC2)N1C(=O)c1cccc2ccccc12` [Example 154, 2-cyclooctyl-4,4-dimethyl-1-(naphthalen-1-ylcarbonyl)-1,2-diazetidin-3-one], the IC50 in assay [1] (Table 1) is 0.036 µM.
With `CC1(C)C(=O)N(C2C3CC4CC(C3)CC2C4)N1C(=O)c1ccccc1N` (stereo not drawn) [Example 136, 1-[(2-aminophenyl)carbonyl]-4,4-dimethyl-2-(adamantan-2-yl)-1,2-diazetidin-3-one], the IC50 in assay [1] (Table 1) was 0.14 µM.

Source of the values: patent US8252781B2, “1,2-diazetidin-3-one derivatives and drugs containing same” (Kowa Company, Ltd., priority 2008, dated 2012).
